In patent publication US9139577B2, “Sulfoximine substituted quinazolines for pharmaceutical compositions” (Boehringer Ingelheim International GmbH, priority 2013, dated 2015):

Target: MNK2a (Homo sapiens (Human), UniProt Q9HBH9)
Assay: MNK2a in vitro kinase assay (Assay 2), ADP-Glo
Format: biochemical
Conditions: read-out: MNK2 IC50
Procedure: B. MNK2a In vitro Kinase Assay (Assay 2)
ASSAY SETUP: The inhibition of kinase activity of MNK2a was assessed using pre-activated GST-MNK2a. The white, 384-well OptiPlate F plates were purchased from PerkinElmer. The ADP-Glo Kinase Assay (including ultra pure ATP) was purchased from Promega (V9103). Activated MNK2a was obtained as described in WO2011/104340. […] ID No. 5 of WO 2011/104340 by the C-terminal —CONH2 group, was purchased from Thermo Fisher Scientific. All other materials were of highest grade commercially available. Compounds are tested in either serial dilutions or single dose concentrations. The compound stock solutions are 10 mM in 100% DMSO The serial compound dilutions are prepared in 100% DMSO followed by 1:27.3 intermediate dilution in assay buffer. The final DMSO concentration in assay will be <3%. In the 384-well plates 3 μl of test compound from the intermediate dilution is mixed with 4 μl of the activated MNK2 enzyme (final concentration of 10 nM) and 4 μl of the peptide (final concentration of 25 μM)/ultra pure ATP (final concentration of 20 μM), all dissolved in assay buffer. This step is followed by an incubation time of 90 min, then 10 μl of ADP Glo reagent are added, followed by 40 min of incubation. Then 20 μl of kinase detection reagent are admixed. The plates are sealed and after an incubation period of 30 min, the luminescence signal is measured in an Envision reader to determine the amount of produced ADP. All incubation steps are performed at room temperature. The assay buffer consists of 20 mM HEPES, 2 mM DTT, 0.01% BSA, 20 mM MgCl2 and 0.1% Pluronic F-127.
The luminescent signal generated is proportional to the ADP concentration produced and is correlated with activated MNK2 activity. The analysis of the data is performed by the calculation of the percentage of ATP consumption of activated MNK2 in the presence of the test compound compared to the consumption of ATP in the presence of activated MNK2 without compound. (RLU(sample)−RLU(low control))*100/(RLU(high value)−RLU(low control)) [RLU=relative luminescence units]
[…] values based on dose response curves are calculated with the AssayExplorer software.

Chain of MNK2a (Q9HBH9 whole entry): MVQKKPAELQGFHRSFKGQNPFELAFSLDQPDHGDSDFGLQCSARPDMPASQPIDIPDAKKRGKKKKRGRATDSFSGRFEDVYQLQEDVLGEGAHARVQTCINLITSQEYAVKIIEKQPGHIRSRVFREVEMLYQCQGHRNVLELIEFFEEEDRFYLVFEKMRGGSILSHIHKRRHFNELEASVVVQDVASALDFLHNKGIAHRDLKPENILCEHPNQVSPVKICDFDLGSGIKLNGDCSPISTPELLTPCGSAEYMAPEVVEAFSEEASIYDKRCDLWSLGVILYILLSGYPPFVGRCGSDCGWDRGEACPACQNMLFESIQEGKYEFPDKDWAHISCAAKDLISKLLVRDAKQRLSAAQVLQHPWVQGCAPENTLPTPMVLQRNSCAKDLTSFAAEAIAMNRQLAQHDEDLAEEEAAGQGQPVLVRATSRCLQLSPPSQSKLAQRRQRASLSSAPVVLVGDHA

Structure (SMILES) | IC50
Cc1cc(N=S2(=O)CCC2)cc2ncnc(Nc3ccc(F)cc3O[C@H](C)C(=O)N(CC(F)(F)F)CC(F)(F)F)c12 [Example 3.052] | 3 nM
Cc1cc(N=S2(=O)CCC2)cc2ncnc(Nc3cccnc3O[C@H](C)C(=O)NCC(F)F)c12 [Example 2.021] | 2 nM
Cc1cc(N=S2(=O)CC[C@H](N)C2)cc2ncnc(Nc3ccc(F)cc3O[C@H](C)C(=O)NCC(F)(F)F)c12 (some centres unmarked) [Example 2.019] | 1 nM
CC#CCNC(=O)[C@@H](C)Oc1cc(F)ccc1Nc1ncnc2cc(N=S(C)(C)=O)cc(C)c12 [Example 4.066] | 9 nM
COc1cc(N=S2(=O)CCC2)cc2ncnc(Nc3ccc(F)cc3O[C@H](C)C(=O)NCC(F)F)c12 [Example 6.002] | 2 nM
Cc1cc(N=S(C)(C)=O)cc2ncnc(Nc3ccc(F)cc3OC(C)Cn3cccn3)c12 (centres unmarked) [Example 3.034] | 58 nM
Cc1cc(N=S(C)(C)=O)cc2ncnc(Nc3ccc(F)cc3O[C@@H](C)CN)c12 [Example 3.024] | 16 nM
COc1cc(N=S2(=O)CCC2)cc2ncnc(Nc3ccc(Cl)cc3O[C@H](C)C(=O)NCC(F)(F)F)c12 [Example 4.087] | 2 nM
Cc1cc(N=S2(=O)CC(C)(C)C2)cc2ncnc(Nc3ccc(Cl)cc3O[C@H](C)C(=O)N[C@@H](C)C(F)(F)F)c12 [Example 2.034] | 1 nM
C[C@H](C#N)NC(=O)[C@@H](C)Oc1cc(F)ccc1Nc1ncnc2cc(N=S3(=O)CCC3)cc(F)c12 [Example 4.113] | 1 nM
Cc1cc(N=S(C)(C)=O)cc2ncnc(Nc3ccc(F)cc3O[C@H](C)C(=O)N3CCC(=O)CC3)c12 [Example 4.046] | 15 nM
C[C@@H](Oc1cc(F)ccc1Nc1ncnc2cc(N=S(C)(C)=O)cc(Cl)c12)C(=O)NCC#N [Example 4.085] | 2 nM
Cc1cc(N=S(C)(C)=O)cc2ncnc(Nc3ccc(F)cc3O[C@H](C)C(=O)NCC(F)F)c12 [Example 4.036] | 1 nM
CCOc1cc(N=S2(=O)CCC2)cc2ncnc(Nc3ccc(Cl)cc3O[C@H](C)C(=O)N[C@@H](C)C#N)c12 [Example 4.095] | 2 nM
COc1cc(N=S(C)(C)=O)cc2ncnc(Nc3ccc(F)cc3O[C@H](C)C(=O)NCC(F)(F)F)c12 [Example 3.040] | 6 nM
Cc1cc(N=S(C)(C)=O)cc2ncnc(Nc3ccc(C#N)cc3OC(C)C(F)(F)F)c12 (centres unmarked) [Example 1.001] | 17 nM
CCCNC(=O)[C@@H](C)Oc1cc(F)ccc1Nc1ncnc2cc(N=S3(=O)CCCC3)cc(C)c12 [Example 4.033] | 2 nM
Cc1cc([C@@H](C)Oc2cc(F)ccc2Nc2ncnc3cc(N=S4(=O)CCNCC4)cc(C)c23)on1 [Example 2.016] | 1 nM
COc1cc(N=S2(=O)CCC2)cc2ncnc(Nc3ccc(F)cc3O[C@H](C)C(=O)N[C@@H](C)C(F)(F)F)c12 [Example 4.098] | 4 nM
Cc1cc(N=S2(=O)CCCC2)cc2ncnc(Nc3ccc(F)cc3O[C@H](C)C(=O)NCC#N)c12 [Example 4.007] | 2 nM
Cc1cc(N=S(C)(=O)C(C)C)cc2ncnc(Nc3ccc(F)cc3O[C@H](C)C(=O)NCC(F)(F)F)c12 (some centres unmarked) [Example 2.046] | 3 nM
CCC(Oc1cc(F)ccc1Nc1ncnc2cc(N=S(C)(C)=O)cc(C)c12)C(=O)OC (centres unmarked) [Example 3.017] | 138 nM
Cc1cc(N=S2(=O)CCCC2)cc2ncnc(Nc3ccc(F)cc3OC(C)C(C)(C)C#N)c12 (centres unmarked) [Example 2.007] | 3 nM
C[C@@H](Oc1cc(F)ccc1Nc1ncnc2cc(N=S3(=O)CC(C)(C)C3)cc(F)c12)C(=O)NCC#N [Example 2.026] | 1 nM
C[C@@H](Oc1cc(F)ccc1Nc1ncnc2cc(N=S3(=O)CC4(COC4)C3)cc(Cl)c12)C(=O)NCC(F)(F)F [Example 2.024] | 3 nM

Structure (SMILES) | IC50
Cc1cc(N=S2(=O)CCCC2)cc2ncnc(Nc3ccc(F)cc3O[C@H](C)C(=O)NCC(F)F)c12 [Example 4.043] | 2 nM
Cc1cc(N=S(C)(C)=O)cc2ncnc(Nc3cccnc3OC(C)C(F)(F)F)c12 (centres unmarked) [Example 1.017] | 12 nM
Cc1cc(N=S(C)(C)=O)cc2ncnc(Nc3ccc(F)cc3OC(C)Cn3ccnc3)c12 (centres unmarked) [Example 3.004] | 17 nM
C[C@@H](Oc1cc(F)ccc1Nc1ncnc2cc(N=S(C)(C)=O)cc(Cl)c12)C(=O)NC(CF)CF [Example 4.120] | 2 nM
C[C@@H](Oc1cc(F)ccc1Nc1ncnc2cc(N=S3(=O)CCC3)cc(F)c12)C(=O)NCCF [Example 4.117] | 3 nM
Cc1cc(N=S(C)(C)=O)cc2ncnc(Nc3ccc(F)cc3O[C@H](C)C(=O)N3CCCC3)c12 [Example 4.016] | 20 nM
COc1cc(N=S(C)(=O)C2CC2)cc2ncnc(Nc3ccc(F)cc3O[C@H](C)C(=O)NCC(F)(F)F)c12 (some centres unmarked) [Example 2.030] | 4 nM
Cc1cc(N=S2(=O)CCC2)cc2ncnc(Nc3ccc(Cl)nc3O[C@H](C)C(=O)N[C@@H](C)C(F)(F)F)c12 [Example 4.094] | 1 nM
C[C@@H](Oc1cc(F)ccc1Nc1ncnc2cc(N=S(C)(C)=O)cc(F)c12)C(=O)NC(CF)CF [Example 4.121] | 5 nM
Cc1cc(N=S2(=O)CC3(COC3)C2)cc2ncnc(Nc3ccc(F)cc3O[C@H](C)C(=O)NCC(F)(F)F)c12 [Example 2.038] | 3 nM
Cc1cc(N=S2(=O)CCCC2)cc2ncnc(Nc3ccc(F)cc3O[C@H](C)C(=O)N3CCCC3)c12 [Example 4.006] | 5 nM
Cc1cc(N=S2(=O)CCCC2)cc2ncnc(Nc3ccc(F)cc3O[C@H](C)C(=O)NCCF)c12 [Example 4.105] | 2 nM
Cc1cc(N=S2(=O)CCC2)cc2ncnc(Nc3ccc(F)cc3O[C@H](C)C(=O)NCC(F)(F)F)c12 [Example 4.139] | 1 nM
Cc1cc(N=S2(=O)CCC(O)C2)cc2ncnc(Nc3ccc(F)cc3O[C@H](C)C(=O)NCC(F)(F)F)c12 (some centres unmarked) [Example 2.023] | 2 nM
Cc1cc(N=S2(=O)CCC2)cc2ncnc(Nc3ccc(F)cc3O[C@H](C)C(=O)NCCF)c12 [Example 4.107] | 2 nM
Cc1cc(N=S2(=O)CCCC2)cc2ncnc(Nc3cccnc3O[C@H](C)C(=O)NCC(F)(F)F)c12 [Example 2.022] | 2 nM
C[C@@H](Oc1ncccc1Nc1ncnc2cc(N=S(C)(C)=O)cc(F)c12)C(=O)NCC(F)(F)F [Example 2.031] | 10 nM
C[C@@H](Oc1cc(F)ccc1Nc1ncnc2cc(N=S(C)(C)=O)cc(F)c12)C(=O)NCC(F)F [Example 4.133] | 4 nM
Cc1cc(N=S2(=O)CCC2)cc2ncnc(Nc3ccc(F)cc3O[C@H](CO)C(F)(F)F)c12 [Example 2.043] | 2 nM
C[C@H](C#N)NC(=O)[C@@H](C)Oc1cc(F)ccc1Nc1ncnc2cc(N=S3(=O)CCC3)cc(Cl)c12 [Example 4.112] | 2 nM
CC(C#N)NC(=O)[C@@H](C)Oc1cc(F)ccc1Nc1ncnc2cc(N=S3(=O)CCC3)cc(F)c12 (some centres unmarked) [Example 4.099] | 2 nM
COC(=O)N1CCS(=O)(=Nc2cc(C)c3c(Nc4ccc(F)cc4O[C@H](C)c4cc(C)no4)ncnc3c2)CC1 [Example 5.013] | 2 nM
C[C@@H](Oc1cc(F)ccc1Nc1ncnc2cc(N=S(C)(C)=O)cc(C(F)(F)F)c12)C(=O)NCC(F)(F)F [Example 4.086] | 2 nM
C[C@@H](Oc1cc(F)ccc1Nc1ncnc2cc(N=S3(=O)CCC3)cc(F)c12)C(=O)NCC#N [Example 4.097] | 1 nM
CC(NC(=O)[C@@H](C)Oc1cc(F)ccc1Nc1ncnc2cc(N=S3(=O)CCC3)cc(C(F)F)c12)C(F)F (some centres unmarked) [Example 4.146] | 4 nM
